Several values for one entry are separate records, joined by “and”; a condition that tells them apart may be missing. Equal entries are not always repeated.
Assays:
GluN1-4a/GluN2C NMDARs = target: T1, GluN1-4a/GluN2C NMDARs (Rattus norvegicus, UniProt P35439+Q00961); experiment: TEVC electrophysiology on Xenopus laevis oocytes expressing GluN1-4a/GluN2C; assay type: cell-based; details: Ki, 100 μM glycine, 1 or 3 μM L-glutamate
T1 construct: expressed in transfected cells; host or cells: Xenopus laevis oocytes injected with cRNA
T1 sequence (Q00961 20-1237, other chains not shown): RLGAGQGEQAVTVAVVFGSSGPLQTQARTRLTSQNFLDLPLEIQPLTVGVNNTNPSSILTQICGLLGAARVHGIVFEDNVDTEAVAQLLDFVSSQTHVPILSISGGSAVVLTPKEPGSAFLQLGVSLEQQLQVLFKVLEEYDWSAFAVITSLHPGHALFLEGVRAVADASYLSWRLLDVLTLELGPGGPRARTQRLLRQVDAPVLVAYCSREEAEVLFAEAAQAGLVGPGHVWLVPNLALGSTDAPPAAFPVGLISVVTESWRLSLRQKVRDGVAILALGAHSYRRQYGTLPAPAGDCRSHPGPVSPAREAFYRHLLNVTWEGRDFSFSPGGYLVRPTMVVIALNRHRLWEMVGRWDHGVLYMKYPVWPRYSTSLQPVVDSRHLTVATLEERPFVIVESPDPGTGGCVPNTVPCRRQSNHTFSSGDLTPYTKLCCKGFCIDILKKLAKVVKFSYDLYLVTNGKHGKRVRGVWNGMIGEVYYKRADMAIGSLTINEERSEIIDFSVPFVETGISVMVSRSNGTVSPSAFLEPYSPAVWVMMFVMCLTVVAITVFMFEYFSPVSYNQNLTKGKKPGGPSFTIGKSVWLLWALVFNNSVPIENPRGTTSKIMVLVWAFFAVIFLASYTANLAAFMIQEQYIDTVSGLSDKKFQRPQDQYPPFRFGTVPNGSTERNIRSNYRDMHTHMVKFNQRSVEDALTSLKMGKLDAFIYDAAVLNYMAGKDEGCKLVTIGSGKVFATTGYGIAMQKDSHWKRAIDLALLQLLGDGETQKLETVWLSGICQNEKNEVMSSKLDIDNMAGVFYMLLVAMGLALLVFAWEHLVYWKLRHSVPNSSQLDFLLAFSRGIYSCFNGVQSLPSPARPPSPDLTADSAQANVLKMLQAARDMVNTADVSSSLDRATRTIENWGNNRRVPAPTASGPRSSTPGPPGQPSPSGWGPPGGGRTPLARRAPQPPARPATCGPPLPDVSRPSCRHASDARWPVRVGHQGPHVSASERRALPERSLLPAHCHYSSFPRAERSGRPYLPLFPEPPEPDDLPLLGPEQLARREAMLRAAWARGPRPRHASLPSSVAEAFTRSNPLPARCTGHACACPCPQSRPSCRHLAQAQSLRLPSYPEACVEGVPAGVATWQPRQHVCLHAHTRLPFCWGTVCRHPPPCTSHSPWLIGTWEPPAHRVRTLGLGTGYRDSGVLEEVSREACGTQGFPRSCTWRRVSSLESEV
Description: (§1) The chemical definition of UBP791 used in this study is a cis-racemic mixture of (2S,3R)- and (2R,3S)-isomers.
(§2) Plasmids (pSP or pCI_NEO) harboring rat GluN1 or GluN2 full-length subunits were linearized by restriction digestion and transcribed according to the manufacturer’s instructions (mMESSAGE mMachine SP6 or T7 kit, ThermoFisher Scientific). Recombinant rat GluN1-4a and GluN2 were expressed by co-injecting cRNA at a 1:2 (w/w) ratio into defolliculated X. laevis oocytes (amounts varied from 0.05–25 ng per oocyte). Two-electrode voltage-clamp recordings were performed 1–3 days after injection using agarose-tipped microelectrodes (0.4–1.2 MΩ) filled with 3 M KCl at a holding potential of −60 mV. The bath solution contained 5 mM HEPES, 100 mM NaCl, 0.3 mM BaCl2, 10 mM Tricine, at pH 7.4 (adjusted with KOH). […] For the statistical evaluation, we implemented pairwise F-tests to test variances, and then performed the Student t test with equal or unequal variances as determined previously, and accounted for multiple testing with the Bonferroni correction.

[1] = target: T2, GluN1-4a/GluN2A-4m NMDAR (Ala414Arg, Lys738Met, Gly740Arg, Arg741Lys) (Rattus norvegicus, UniProt P35439+Q00959, A414R/G740R/K738M/R741K); experiment: TEVC electrophysiology on oocytes expressing GluN1-4a/GluN2A-4m mutant; assay type: cell-based
T2 construct: we incorporated the mutations, Ala414Arg, Lys738Met, Gly740Arg, and Arg741Lys, in the full-length GluN2A (GluN2A-4m); expressed in transfected cells; host or cells: Xenopus laevis oocytes injected with cRNA
Description: (§3) Our previous structure of the GluN1–GluN2A LBD complexed to PPDA unambiguously mapped the antagonist-binding site at the cleft of the bilobe architecture of the GluN2 LBD (PDB: 4NF6). […] In this study, we focus on the comparison between the GluN2A and GluN2D subunits, since sequence and functional similarities between GluN2A and GluN2B and between GluN2C and GluN2D are high. Near the PPDA-binding pocket in the GluN2A LBD (Fig. 3a), the primary sequences across the GluN2A-D subunits are mostly identical except for four residues, GluN2A-Ala414, Lys738, Gly740, and Arg741, which are Arg, Met, Arg, and Lys residues in GluN2D, respectively (Fig. 3a; yellow residues and arrows in the sequence alignment). GluN2A-Ala414 is located in the D1-lobe, whereas GluN2A-Lys738, Gly740, and Arg741 are on Helix H in the D2-lobe proximal to the predicted binding site for the carboxyethyl group of UBP791. These residues are completely conserved among human, rat, and chicken, though GluN2A-Ala414 and -Lys738 are not conserved in X. laevis (frog) and Danio rerio (zebrafish) (Supplementary Fig. 1).
as §2

[2] = target: T3, GluN1-4a/GluN2A-4m NMDAR (Ala414Arg, Lys738Met, Gly740Arg, Arg741Lys) (Rattus norvegicus, UniProt Q00959, A414R/G740R/K738M/R741K); experiment: as above; assay type: cell-based; details: Ki GluN2A-4m relative to Ki GluN2D (WT)
T3 construct: we incorporated the mutations, Ala414Arg, Lys738Met, Gly740Arg, and Arg741Lys, in the full-length GluN2A (GluN2A-4m); expressed in transfected cells; host or cells: Xenopus laevis oocytes injected with cRNA
Description: as §3, §2

GluN1-4a/GluN2A NMDARs [3] = target: T4, GluN1-4a/GluN2A NMDARs (Rattus norvegicus, UniProt P35439+Q00959); experiment: TEVC electrophysiology on Xenopus laevis oocytes expressing GluN1-4a/GluN2A; assay type: cell-based; details: for Ki: Cheng–Prusoff from IC50 and L-glutamate EC50, 100 μM glycine, 1 or 3 μM L-glutamate
T4 construct: expressed in transfected cells; host or cells: Xenopus laevis oocytes injected with cRNA
Description: as §1, §2

GluN1-4a/GluN2A NMDARs [4] = target: T5, GluN1-4a/GluN2A NMDARs (Rattus norvegicus, UniProt Q00959); experiment: as above; assay type: cell-based; details: for fold difference of Ki vs. 2D (GluN2A): Ki GluN2A relative to Ki GluN2D (WT)
T5 construct: expressed in transfected cells; host or cells: Xenopus laevis oocytes injected with cRNA
T5 sequence (Q00959 23-1464, other chains not shown): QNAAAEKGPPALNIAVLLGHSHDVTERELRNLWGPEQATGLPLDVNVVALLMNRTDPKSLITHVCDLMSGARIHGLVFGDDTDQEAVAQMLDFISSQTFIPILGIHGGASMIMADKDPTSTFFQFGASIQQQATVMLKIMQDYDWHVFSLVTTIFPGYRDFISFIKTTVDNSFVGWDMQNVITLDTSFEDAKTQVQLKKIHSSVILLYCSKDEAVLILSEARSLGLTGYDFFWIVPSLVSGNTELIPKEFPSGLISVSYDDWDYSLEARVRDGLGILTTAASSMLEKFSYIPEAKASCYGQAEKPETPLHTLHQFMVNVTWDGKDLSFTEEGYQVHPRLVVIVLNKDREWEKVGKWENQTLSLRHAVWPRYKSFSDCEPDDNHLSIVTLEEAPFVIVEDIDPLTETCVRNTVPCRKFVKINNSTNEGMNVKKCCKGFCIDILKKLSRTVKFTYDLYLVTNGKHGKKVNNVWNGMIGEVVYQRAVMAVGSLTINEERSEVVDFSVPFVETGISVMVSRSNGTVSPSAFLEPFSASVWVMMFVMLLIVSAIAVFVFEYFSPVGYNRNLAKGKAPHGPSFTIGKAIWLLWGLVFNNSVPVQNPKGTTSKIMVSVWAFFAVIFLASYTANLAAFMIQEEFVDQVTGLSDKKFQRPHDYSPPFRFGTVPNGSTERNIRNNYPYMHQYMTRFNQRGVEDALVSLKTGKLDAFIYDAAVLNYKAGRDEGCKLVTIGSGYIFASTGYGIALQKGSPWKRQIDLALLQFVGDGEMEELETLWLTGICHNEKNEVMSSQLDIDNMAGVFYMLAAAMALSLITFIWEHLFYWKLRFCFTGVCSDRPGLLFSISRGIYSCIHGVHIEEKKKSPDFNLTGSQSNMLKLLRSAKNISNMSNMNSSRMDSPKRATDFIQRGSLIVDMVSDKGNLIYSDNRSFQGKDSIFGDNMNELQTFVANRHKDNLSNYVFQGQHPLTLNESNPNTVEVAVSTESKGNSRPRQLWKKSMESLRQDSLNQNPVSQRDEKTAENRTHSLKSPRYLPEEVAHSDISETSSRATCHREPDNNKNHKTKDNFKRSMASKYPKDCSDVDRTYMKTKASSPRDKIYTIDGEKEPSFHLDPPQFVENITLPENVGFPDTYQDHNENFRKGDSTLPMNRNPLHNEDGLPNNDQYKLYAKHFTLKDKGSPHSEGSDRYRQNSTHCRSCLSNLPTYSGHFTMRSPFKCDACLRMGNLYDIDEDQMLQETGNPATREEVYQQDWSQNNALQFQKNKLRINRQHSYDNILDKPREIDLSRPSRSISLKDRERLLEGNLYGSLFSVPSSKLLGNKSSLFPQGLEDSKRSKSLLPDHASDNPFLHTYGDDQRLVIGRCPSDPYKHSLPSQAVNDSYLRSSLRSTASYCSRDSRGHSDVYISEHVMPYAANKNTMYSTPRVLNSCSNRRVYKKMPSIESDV
Description: as §1, §2

GluA1 = GluA1 (Homo sapiens, UniProt P42261); experiment: Glutamate-stimulated Ca2+-influx fluorescence assay in HEK293 cells, GluA1; assay type: cell-based; details: for IC50: HEK293 cells, glutamate-stimulated Ca2+-influx
Procedure: (§4) HEK293 cell lines stably expressing homomeric glutamate receptors (GluA1, GluK1 and GluK2) were obtained from Eli Lilly and grown in DMEM (ThermoFisher) supplemented with 10% v/v fetal bovine serum (Sigma), 2 mM Glutamax™ (Gibco), 100 U/mL penicillin, 100 µg streptomycin and 250 ng amphotericin B (Sigma) in 5% CO2 at 37 °C. Cells were passaged using TrypLE (Gibco) as required before confluency and periodically treated with selection antibiotics (GluK1, GluK2 hygromycin B, 200 µg/mL; GluA1 geneticin™, 200 µg/mL).
(§5) Calcium influx fluorescence assay
(§6) 100k cells/well were seeded into a 96-well plate precoated with poly-L-lysine and incubated for 12-16 hours until fully confluent. The cell monolayer was washed twice with 100 µL Hanks Balanced Salt Solution supplemented with 5 mM CaCl2 and 20 mM HEPES (sHBSS), then incubated for 2-4 hours with 100 µL working solution of Ca6 dye (Molecular Devices) supplemented with a desensitization blocker (GluK1, GluK2 0.25 mg/mL concanavalin A, Sigma; GluA1 100 µM cyclothiazide, Sigma). The time resolved fluorescence was recorded in a Flexstation 3 instrument (Molecular Devices). For each individual reading, the initial fluorescence of the well was measured for 20 seconds, after which the desired concentration of […]
(§7) response is measured as the peak change in fluorescence upon addition of agonist. The viability of the cells was confirmed by determination of the concentration-response curve to the L-glutamate agonist and a standard antagonist for each plate. Readings of antagonists used the […]
(§8) Fluorescence traces were performed in […]
(§9) triplicate on each plate and Ki values were determined on a plate-by-plate basis. Separate experiments (n) were performed on different passages of cells. […]

[5] = Water solubility (statement); assay type: physicochemical; details: authors' statement in peer review file
GluK2 = GluK2 (Homo sapiens, UniProt Q13002); experiment: Glutamate-stimulated Ca2+-influx fluorescence assay in HEK293 cells, GluK2; assay type: cell-based; details: for IC50: HEK293 cells, glutamate-stimulated Ca2+-influx
Chain of GluK2 (Q13002 32-908): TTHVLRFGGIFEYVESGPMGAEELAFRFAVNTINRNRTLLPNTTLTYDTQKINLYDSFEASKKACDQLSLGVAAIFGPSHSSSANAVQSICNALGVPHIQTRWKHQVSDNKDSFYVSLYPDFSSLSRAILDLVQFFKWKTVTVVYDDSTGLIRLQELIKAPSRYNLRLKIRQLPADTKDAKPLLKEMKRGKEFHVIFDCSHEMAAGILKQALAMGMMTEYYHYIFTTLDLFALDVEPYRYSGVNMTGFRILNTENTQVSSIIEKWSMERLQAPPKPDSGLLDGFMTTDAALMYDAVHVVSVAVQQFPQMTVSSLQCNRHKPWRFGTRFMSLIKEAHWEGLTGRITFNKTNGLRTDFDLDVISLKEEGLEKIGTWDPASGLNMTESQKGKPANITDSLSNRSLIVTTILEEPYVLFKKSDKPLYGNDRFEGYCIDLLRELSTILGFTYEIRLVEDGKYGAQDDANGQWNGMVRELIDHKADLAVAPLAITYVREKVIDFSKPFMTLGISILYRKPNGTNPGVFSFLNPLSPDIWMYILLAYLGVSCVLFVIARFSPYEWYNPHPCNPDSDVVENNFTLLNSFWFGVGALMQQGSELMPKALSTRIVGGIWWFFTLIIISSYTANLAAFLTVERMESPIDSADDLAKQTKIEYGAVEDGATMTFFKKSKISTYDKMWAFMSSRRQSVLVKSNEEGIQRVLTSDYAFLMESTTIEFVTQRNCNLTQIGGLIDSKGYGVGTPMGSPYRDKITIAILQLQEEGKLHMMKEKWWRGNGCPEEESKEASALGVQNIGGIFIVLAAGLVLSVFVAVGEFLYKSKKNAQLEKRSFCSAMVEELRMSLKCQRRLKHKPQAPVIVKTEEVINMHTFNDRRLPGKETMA
Procedure: as §4, §5, §6, §7, §8, §9

GluN1-4a/GluN2B NMDARs [6] = target: T6, GluN1-4a/GluN2B NMDARs (Rattus norvegicus, UniProt Q00960); experiment: TEVC electrophysiology on Xenopus laevis oocytes expressing GluN1-4a/GluN2B; assay type: cell-based; details: for fold difference of Ki vs. 2D (GluN2B): Ki GluN2B relative to Ki GluN2D (WT)
T6 construct: expressed in transfected cells; host or cells: Xenopus laevis oocytes injected with cRNA
T6 sequence (Q00960 27-1482, other chains not shown): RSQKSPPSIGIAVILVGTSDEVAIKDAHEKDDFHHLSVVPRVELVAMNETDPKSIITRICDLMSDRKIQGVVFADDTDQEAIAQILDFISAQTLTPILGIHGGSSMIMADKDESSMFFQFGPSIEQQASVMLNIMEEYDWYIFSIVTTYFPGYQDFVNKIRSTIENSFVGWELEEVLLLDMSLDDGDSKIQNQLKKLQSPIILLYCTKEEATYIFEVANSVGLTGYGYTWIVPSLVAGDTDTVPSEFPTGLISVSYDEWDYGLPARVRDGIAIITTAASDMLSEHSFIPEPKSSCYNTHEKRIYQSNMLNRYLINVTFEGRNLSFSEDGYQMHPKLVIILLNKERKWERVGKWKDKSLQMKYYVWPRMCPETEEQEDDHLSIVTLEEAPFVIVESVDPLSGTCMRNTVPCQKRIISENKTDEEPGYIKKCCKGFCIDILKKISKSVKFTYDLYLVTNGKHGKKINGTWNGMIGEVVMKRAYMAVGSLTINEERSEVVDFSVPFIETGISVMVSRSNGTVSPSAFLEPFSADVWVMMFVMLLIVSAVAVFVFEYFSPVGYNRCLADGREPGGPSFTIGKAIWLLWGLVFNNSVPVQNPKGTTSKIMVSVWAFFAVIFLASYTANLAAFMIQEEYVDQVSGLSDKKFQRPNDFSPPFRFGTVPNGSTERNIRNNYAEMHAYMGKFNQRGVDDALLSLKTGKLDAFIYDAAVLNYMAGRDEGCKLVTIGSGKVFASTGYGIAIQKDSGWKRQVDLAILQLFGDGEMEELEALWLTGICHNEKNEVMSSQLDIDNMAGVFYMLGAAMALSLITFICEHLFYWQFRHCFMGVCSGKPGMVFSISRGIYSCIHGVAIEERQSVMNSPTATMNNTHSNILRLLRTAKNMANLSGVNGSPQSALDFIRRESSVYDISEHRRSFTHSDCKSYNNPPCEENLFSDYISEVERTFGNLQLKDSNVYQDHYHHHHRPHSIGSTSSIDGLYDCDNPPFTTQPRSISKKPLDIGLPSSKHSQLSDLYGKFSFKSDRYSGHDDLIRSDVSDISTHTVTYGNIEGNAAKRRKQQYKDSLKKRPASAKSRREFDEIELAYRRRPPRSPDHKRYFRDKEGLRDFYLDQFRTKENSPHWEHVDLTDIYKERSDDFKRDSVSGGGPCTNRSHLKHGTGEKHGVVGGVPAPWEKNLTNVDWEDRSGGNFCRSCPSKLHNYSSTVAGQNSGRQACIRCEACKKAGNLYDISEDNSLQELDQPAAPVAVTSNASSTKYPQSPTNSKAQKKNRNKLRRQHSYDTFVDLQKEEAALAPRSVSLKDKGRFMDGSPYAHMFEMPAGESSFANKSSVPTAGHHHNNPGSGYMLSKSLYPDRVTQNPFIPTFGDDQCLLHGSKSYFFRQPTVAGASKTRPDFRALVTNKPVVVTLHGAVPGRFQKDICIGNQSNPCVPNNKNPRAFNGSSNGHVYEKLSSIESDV
Description: as §1, §2

GluN1-4a/GluN2B NMDARs [7] = target: T7, GluN1-4a/GluN2B NMDARs (Rattus norvegicus, UniProt P35439+Q00960); experiment: as above; assay type: cell-based
T7 construct: expressed in transfected cells; host or cells: Xenopus laevis oocytes injected with cRNA
Description: as §1, §2

[8] = normalized response at 30 µM compound
[9] = normalized response at 100 µM compound

O=C(O)CCc1ccc2c(ccc3cc(C(=O)N4CCN[C@@H](C(=O)O)[C@H]4C(=O)O)ccc32)c1 (relative stereo) [UBP791, (2S*,3R*)-1-(7-(2-carboxyethyl)phenanthrene-2-carbonyl)piperazine-2,3-dicarboxylic acid]
Ki (GluN1-4a/GluN2C NMDARs; Cheng–Prusoff from IC50 and L-glutamate EC50): 80 ± 10 nM
Ki (GluN1-4a/GluN2C NMDARs; Cheng–Prusoff): 80 to 90 nM
Ki [1]: 710 ± 140 nM
fold difference of Ki vs. 2D (GluN2A-4m) [2]: ~ 8 fold
IC50 (GluN1-4a/GluN2A NMDARs [3]): 6310 ± 400 nM
Ki (GluN1-4a/GluN2A NMDARs [3]): 4070 nM and ~4000 nM
fold difference of Ki vs. 2D (GluN2A) (GluN1-4a/GluN2A NMDARs [4]): ~ 47 fold
Hill coefficient (nH) (GluN1-4a/GluN2A NMDARs [4]; inhibition dose-response, 100 μM glycine, 1 or 3 μM L-glutamate): 1.19 ± 0.07
GluN2C/2D-selectivity over GluN2A (GluN1-4a/GluN2A NMDARs [4]; ratio of Ki values): 47 fold
IC50 (GluA1): > 100000 nM
Mean Response (GluA1; [8]): 94.1%
Mean Response (GluA1; [9]): 86.0%
water solubility relative to PPDA [5]: more water soluble than PPDA
IC50 (GluK2): > 100000 nM
Mean Response (GluK2; [8]): 96.1%
Mean Response (GluK2; [9]): 97.8%
fold difference of Ki vs. 2D (GluN2B) (GluN1-4a/GluN2B NMDARs [6]): ~ 16 fold
GluN2C/2D-selectivity over GluN2B (GluN1-4a/GluN2B NMDARs [6]; ratio of Ki values): 16 fold
Ki (GluN1-4a/GluN2B NMDARs [7]): 1380 ± 360 nM

O=C(O)C=Cc1ccc2c(ccc3cc(C(=O)N4CCN[C@@H](C(=O)O)[C@H]4C(=O)O)ccc32)c1 (relative stereo) [UBP1700, (2S*,3R*)-1-(7-(2-carboxyvinyl)phenanthrene-2-carbonyl)piperazine-2,3-dicarboxylic acid]
Ki (GluN1-4a/GluN2C NMDARs; Cheng–Prusoff): 7 to 9 nM and 9 nM
Ki [1]: 50 nM
fold difference of Ki vs. 2D (GluN2A-4m) [2]: ~ 7 fold
Ki (GluN1-4a/GluN2A NMDARs [3]): 430 ± 40 nM
fold difference of Ki vs. 2D (GluN2A) (GluN1-4a/GluN2A NMDARs [4]): ~ 64 fold
selectivity for GluN2C over GluN2A (GluN1-4a/GluN2A NMDARs [4]; ratio of Ki values): 50 fold
IC50 (GluA1): > 100000 nM
Mean Response (GluA1; [8]): 105.1%
Mean Response (GluA1; [9]): 101.8%
water solubility relative to PPDA [5]: more water soluble than PPDA
IC50 (GluK2): > 100000 nM
Mean Response (GluK2; [8]): 76.5%
Mean Response (GluK2; [9]): 90.4%
fold difference of Ki vs. 2D (GluN2B) (GluN1-4a/GluN2B NMDARs [6]): ~ 52 fold and 52 fold
selectivity for GluN2C over GluN2B (GluN1-4a/GluN2B NMDARs [6]; ratio of Ki values): 40 fold
Ki (GluN1-4a/GluN2B NMDARs [7]): 350 ± 50 nM
